Reference: PubChem BioAssay (NCI)
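Tested at 5 concentrations; 48 h exposure; 96-well plates; endpoints linearly interpolated, else capped at highest concentration. At the TGI there is no net growth.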

Legend:
Test in all cases: NCI-60 cell line screen, 48 h
[1] = system: OVCAR-5 ovarian
[2] = system: SK-OV-3 ovarian
[3] = system: SF-295 CNS
[4] = system: EKVX NSCLC
[5] = system: SN12C renal
[6] = system: HOP-92 NSCLC
[7] = system: UO-31 renal
[8] = system: SF-268 CNS
[9] = system: ACHN renal
[10] = system: IGROV1 ovarian
[11] = system: KM12 colon
[12] = system: LOX IMVI melanoma
[13] = system: OVCAR-8 ovarian
[14] = system: 786-0 renal
[15] = system: K-562 leukemia
[16] = system: TK-10 renal
[17] = system: MOLT-4 leukemia
[18] = system: DLD-1 colon
[19] = system: KM20L2 colon
[20] = system: SR leukemia
[21] = system: SNB-75 CNS
[22] = system: OVCAR-4 ovarian
[23] = system: CCRF-CEM leukemia
[24] = system: HOP-18 NSCLC
[25] = system: SW-620 colon
[26] = system: NCI-H23 lung
[27] = system: DMS 114 small cell lung
[28] = system: CAKI-1 renal
[29] = system: UACC-62 melanoma
[30] = system: OVCAR-3 ovarian
[31] = system: SF-539 CNS
[32] = system: A549 NSCLC
[33] = system: M14 melanoma
[34] = system: HL-60(TB) leukemia
[35] = system: SNB-19 CNS
[36] = system: XF 498 CNS
[37] = system: HCT-116 colon
[38] = system: HT29 colon
[39] = system: HCT-15 colon
[40] = system: SK-MEL-5 melanoma
[41] = system: M19-MEL melanoma
[42] = system: U251 CNS
[43] = system: NCI-H460 lung
[44] = system: HOP-62 NSCLC
[45] = system: RPMI-8226 leukemia
[46] = system: NCI-H522 lung
[47] = system: MALME-3M melanoma
[48] = system: UACC-257 melanoma
[49] = system: COLO 205 colon
[50] = system: NCI-H226 lung
[51] = system: HCC-2998 colon
[52] = system: DMS 273 small cell lung
[53] = system: RXF-631 renal
[54] = system: A498 renal
[55] = system: LXFL 529 NSCLC
[56] = system: SNB-78 CNS
[57] = system: RXF 393 renal
[58] = system: SK-MEL-28 melanoma
[59] = system: SK-MEL-2 melanoma

Clc1cccc(Cl)c1C1SCc2nc3ccccc3n21 (stereo unspecified)
TGI [1]: > 100 µM | TGI [2]: > 100 µM | TGI [3]: > 100 µM | TGI [4]: > 100 µM | TGI [5]: > 100 µM | TGI [6]: > 100 µM | TGI [7]: > 100 µM | TGI [8]: > 100 µM | TGI [9]: > 100 µM | TGI [10]: > 100 µM | TGI [11]: > 100 µM | TGI [12]: > 100 µM | TGI [13]: > 100 µM | TGI [14]: > 100 µM | TGI [15]: > 100 µM | TGI [16]: > 100 µM | TGI [17]: > 100 µM | TGI [18]: > 100 µM | TGI [19]: > 100 µM | TGI [20]: > 100 µM | TGI [21]: > 100 µM | TGI [22]: > 100 µM | TGI [23]: > 100 µM | TGI [24]: > 100 µM | TGI [25]: > 100 µM | TGI [26]: > 100 µM | TGI [27]: > 100 µM | TGI [28]: > 100 µM | TGI [29]: > 100 µM | TGI [30]: > 100 µM | TGI [31]: > 100 µM | TGI [32]: > 100 µM | TGI [33]: > 100 µM | TGI [34]: > 100 µM | TGI [35]: > 100 µM | TGI [36]: > 100 µM | TGI [37]: > 100 µM | TGI [38]: > 100 µM | TGI [39]: > 100 µM | TGI [40]: 67 µM | TGI [41]: > 100 µM | TGI [42]: > 100 µM | TGI [43]: > 100 µM | TGI [44]: > 100 µM | TGI [45]: > 100 µM | TGI [46]: > 100 µM | TGI [47]: > 100 µM | TGI [48]: > 100 µM | TGI [49]: > 100 µM | TGI [50]: > 100 µM | TGI [51]: > 100 µM | TGI [52]: > 100 µM | TGI [53]: 41.7 µM | TGI [54]: > 100 µM | TGI [55]: > 100 µM | TGI [56]: > 100 µM | TGI [57]: > 100 µM

COc1cc(OC)c2c(c1)C(=O)C(CC1(C)OCCCO1)=CC2=O
TGI [1]: 30.6 µM | TGI [2]: 34.2 µM | TGI [3]: 27.8 µM | TGI [4]: 28.6 µM | TGI [5]: 27.2 µM | TGI [6]: 7.73 µM | TGI [7]: 24.1 µM | TGI [8]: 26.9 µM | TGI [9]: 21.6 µM | TGI [10]: 32.2 µM | TGI [11]: 28.5 µM | TGI [12]: 12.8 µM | TGI [13]: 22.5 µM | TGI [14]: 21.5 µM | TGI [15]: > 69.7 µM | TGI [58]: 23.8 µM | TGI [16]: 25.1 µM | TGI [17]: 30.6 µM | TGI [18]: 17.4 µM | TGI [19]: 27.7 µM | TGI [20]: 7.2 µM | TGI [21]: 25.3 µM | TGI [22]: 19.7 µM | TGI [23]: 15.4 µM | TGI [24]: 25.7 µM | TGI [25]: 20.3 µM | TGI [26]: 27 µM | TGI [27]: 15.8 µM | TGI [28]: 18.8 µM | TGI [29]: 16.2 µM | TGI [30]: 21.4 µM | TGI [31]: 25.6 µM | TGI [32]: 34.4 µM | TGI [33]: 26 µM | TGI [34]: 7.88 µM | TGI [35]: 32.4 µM | TGI [36]: 18.4 µM | TGI [37]: 17.7 µM | TGI [38]: 28.9 µM | TGI [39]: 16.3 µM | TGI [40]: 20.9 µM | TGI [41]: 13.9 µM | TGI [42]: 31.6 µM | TGI [43]: 34.7 µM | TGI [44]: 33.4 µM | TGI [45]: 23.3 µM | TGI [46]: 10.6 µM | TGI [47]: 20.5 µM | TGI [48]: 25.9 µM | TGI [49]: 27.5 µM | TGI [50]: 36.3 µM | TGI [51]: 32.2 µM | TGI [52]: 22.5 µM | TGI [59]: 30.1 µM | TGI [53]: 44.5 µM | TGI [54]: 32.3 µM | TGI [55]: 18.7 µM | TGI [56]: 26.6 µM | TGI [57]: 10.4 µM
